In the supplement of paper PMC13380429:

How the values were obtained:
Conditions in all cases: 72 h
Caco-2 [1] = assay: drug sensitivity score (DSS) for viability; higher = more toxic; extreme values may be limits of the assay
U2OS [2] = assay: as above
HepG2 [3] = assay: as above
Calu-3 [4] = assay: as above
Vero E6 [5] = assay: as above
Caco-2 [6] = assay: relative viability EC50 (midpoint between 100% and the lowest measured viability); higher = less toxic
U2OS [7] = assay: as above
HepG2 [8] = assay: as above
Calu-3 [9] = assay: as above
Vero E6 [10] = assay: as above
Caco-2 [11] = assay: cell viability relative to DMSO; higher = less toxic
U2OS [12] = assay: as above
HepG2 [13] = assay: as above
Calu-3 [14] = assay: as above
Vero E6 [15] = assay: as above

SMILES	drug sensitivity score (Caco-2 [1])	drug sensitivity score (U2OS [2])	drug sensitivity score (HepG2 [3])	drug sensitivity score (Calu-3 [4])	drug sensitivity score (Vero E6 [5])	relative viability EC50 (Caco-2 [6]) [µM]	relative viability EC50 (U2OS [7]) [µM]	relative viability EC50 (HepG2 [8]) [µM]	relative viability EC50 (Calu-3 [9]) [µM]	relative viability EC50 (Vero E6 [10]) [µM]	cell viability (Caco-2 [11]; 1 nM) [%]	cell viability (Caco-2 [11]; 10 nM) [%]	cell viability (Caco-2 [11]; 100 nM) [%]	cell viability (Caco-2 [11]; 1000 nM) [%]	cell viability (Caco-2 [11]; 10000 nM) [%]	cell viability (U2OS [12]; 1 nM) [%]	cell viability (U2OS [12]; 10 nM) [%]	cell viability (U2OS [12]; 100 nM) [%]	cell viability (U2OS [12]; 1000 nM) [%]	cell viability (U2OS [12]; 10000 nM) [%]	cell viability (HepG2 [13]; 1 nM) [%]	cell viability (HepG2 [13]; 10 nM) [%]	cell viability (HepG2 [13]; 100 nM) [%]	cell viability (HepG2 [13]; 1000 nM) [%]	cell viability (HepG2 [13]; 10000 nM) [%]	cell viability (Calu-3 [14]; 1 nM) [%]	cell viability (Calu-3 [14]; 10 nM) [%]	cell viability (Calu-3 [14]; 100 nM) [%]	cell viability (Calu-3 [14]; 1000 nM) [%]	cell viability (Calu-3 [14]; 10000 nM) [%]	cell viability (Vero E6 [15]; 1 nM) [%]	cell viability (Vero E6 [15]; 10 nM) [%]	cell viability (Vero E6 [15]; 100 nM) [%]	cell viability (Vero E6 [15]; 1000 nM) [%]	cell viability (Vero E6 [15]; 10000 nM) [%]
CNC(=O)Oc1ccccc1OC(C)C [propoxur]	0	0	0	0	1	> 10	> 10	> 10	> 10	> 10	99.6	84.6	104	88.1	101	101	97.7	95.7	94.9	98.2	105	93.3	87.5	93.8	99.7	102	97.1	86.2	94.4	104	95	106	102	88.2	85.4
O=C(O)CNC(=O)c1ccccc1 [hippuric-acid]	0.4	0	0	0	0	> 10	> 10	> 10	> 10	> 10	96.9	107	89.2	90	92.8	100	99.3	106	95.2	95.7	100	98.3	99.4	102	95.7	99	97.6	94.3	96.6	99.9	96	98.1	97.1	94.7	100
c1cc2c3c(c1)c1c(n3CCNC2)CCCC1 [WAY-629]	0	0	0	0.1	0	> 10	> 10	> 10	> 10	> 10	113	90.6	100	90	97.1	101	100	95.3	93	95.9	88.5	95.4	81.1	93	90.9	110	83.8	104	106	85.7	100	99.7	102	98.8	92.4
CC[C@@]1(O)C(=O)OCc2c1cc1n(c2=O)Cc2cc3c(CN(C)C)c(O)ccc3nc2-1 [topotecan]	10.4	10.2	23.6	12.6	7.5	0.748	1.16	0.0757	0.38	0.756	97.7	92.8	83.3	58.6	16.2	101	107	97.9	60.6	5.9	110	70.3	48.6	18.8	1.4	111	102	77.3	47.2	20.1	102	97.3	95.1	65.1	39.8
Cc1cc(-c2ccccc2)nnc1NCCN1CCOCC1 [minaprine]	0	0	0	0.2	0	> 10	> 10	> 10	> 10	> 10	92	96	98.4	96.1	89.3	104	97.8	99.6	98.9	103	96.3	99.6	96.8	94.2	93.6	102	96.8	99.1	89.4	91.7	101	98.1	98.8	100	94.5
CC(=O)N1CCN(C)CC1 [1-acetyl-4-methylpiperazine]	0	0	0	0	0	> 10	> 10	> 10	> 10	> 10	100	93.6	101	95.7	97.3	103	99.1	96.2	99.8	102	104	111	101	99.5	100	89.8	86.6	95	100	93.8	105	104	104	98.2	95.9
O=C(O)Cc1ccc(OCc2ccccc2)c(Cl)c1 [benzofenac]	0	0	0	0	0	> 10	> 10	> 10	> 10	> 10	96.9	114	112	104	107	98.2	98.2	99.3	100	94.4	98.5	92.7	94.3	87.1	93.8	97.6	109	98.9	111	93.4	103	105	106	99.6	96.1
